This is an account of results in PMC5796017, “Enantiomeric Effect of D-Amino Acid Substitution on the Mechanism of Action of α-Helical Membrane-Active Peptides” (International Journal of Molecular Sciences, 2017).

Series [1] deals with HeLa. The experiment in a line: MTT cell viability assay. The class given is cell-based, human. Conditions: 24 h, mean ± SEM of three independent determinations. As to the method: (§1) HeLa, MIA PaCa-2, HPAC, and Bxpc-3 cells were maintained in Dulbecco’s modified Eagle medium) with 10% fetal bovine serum, penicillin (100 U/mL), and streptomycin ([…]) in a humid atmosphere at 37 °C with 5% CO2. The effect of the peptides on the survival of HeLa, MIA PaCa-2, HPAC, and Bxpc-3 cells was determined by 3-(4,5-dimethyl-2-thiazolyl)-2,5-diphenyl-2H-tetrazolium bromide (MTT) assay, as described in a previous study. Briefly, cells were seeded in 96-well plates at a density of 5000 per well. After overnight incubation, cells were incubated, in the absence, or presence of various concentrations of peptides for 24 h. Then, the formazan crystals formed by MTT were dissolved with dimethyl sulfoxide (DMSO) and the absorbance was determined at 492 nm with a microplate reader (GF-M3000; Gaomi Caihong Analytical Instruments Co., Shandong, China). The results were expressed as IC50 values, representing the concentration at which cell viability was reduced by 50%. The cytotoxicity assays were repeated in triplicate.
A general note: Formazan colour is commonly taken as a measure of viable cells.

Series [2] concerns HPAC. The experiment in a line: MTT cell viability assay. Conditions: 24 h, mean ± SEM of three independent determinations. In kind it is cell-based, human. As to the method:
as §1

The test system of series [3] is MIA PaCa-2. As to the kind of experiment: MTT cell viability assay. The class given is cell-based, human. Conditions: MIA PaCa-2, MTT, 24 h; mean ± SEM of three independent determinations. As to the method: as §1
For series [4], the system named is BxPC-3. As to the kind of experiment: MTT cell viability assay. The class given is cell-based, human. The note with it: BxPC-3, MTT, 24 h; mean ± SEM of three independent determinations. On the procedure:
as §1

The test system of series [5] is S. epidermidis ATCC12228. As to the kind of experiment: Antimicrobial activity, microtiter dilution MIC. In kind it is cell-based, Staphylococcus epidermidis. Conditions: G+; MH medium, 5 × 10^5 CFU/mL, 37 °C, 24 h, triplicate. As to the method:
(§2) The antimicrobial activity of the peptides was determined by the standard microtiter dilution method and indicated as MIC (minimal inhibitory concentration) as described previously. Briefly, bacteria were cultured in Mueller–Hinton (MH) medium overnight at 37 °C, diluted to a final inoculum of 5 × 10^5 colony-forming units (CFU)/mL with MH and loaded into 96-well microtiter plates (90 μL/well) with serial dilution of peptides (10 μL/well), with a further incubation at 37 °C for 24 h. MIC was expressed as the lowest peptide concentration that inhibited the growth of bacteria. The antimicrobial assays were repeated in triplicate.

The test system of series [6] is S. aureus ATCC25923. The experiment in a line: Antimicrobial activity, microtiter dilution MIC. Conditions: G+; MH medium, 5 × 10^5 CFU/mL, 37 °C, 24 h, triplicate. The class given is cell-based, Staphylococcus aureus. As to the method: as §2
Series [7] deals with E. coli ATCC25922. As to the kind of experiment: Antimicrobial activity, microtiter dilution MIC. In kind it is cell-based, Escherichia coli. Conditions: G−; MH medium, 5 × 10^5 CFU/mL, 37 °C, 24 h, triplicate. As to the method: as §2
A short description of series [8]: Circular dichroism (CD) secondary structure. The class given is physicochemical. The note with it: for [θ]222, benign / [θ]222, 50% TFE: CD, 75 μM peptide, 25 °C; for [θ]222, benign: KP buffer (100 mM KCl, 50 mM KH2PO4/K2HPO4, pH 7.4); for [θ]222, 50% TFE / α-Helix (%), 50% TFE (relative helicity): KP buffer with 50% TFE; for α-Helix (%), 50% TFE (relative helicity) / α-Helix (%), benign: relative to molar ellipticity of V13K in 50% TFE; for α-Helix (%), benign: KP buffer. The source says: The influence of the amino acid substitutions on the peptide secondary structure were investigated using circular dichroism (CD) spectroscopy under benign conditions (KP buffer) and under conditions designed to mimic the hydrophobic environment of the membrane (KP buffer with 50% TFE). D-amino acid substitutions reduced the helicity of the peptide analogs relative to that of peptide V13K, in both KP buffer and KP buffer with 50% TFE. […] As shown in Table 2 and Figure S1, the values of the relative helicity of peptides with polar face substitutions are in the order of K14D (76.99%) > S11D/K14D (51.33%) > S11D/K14D/T15D (38.67%). Similarly, the relative helicity of the peptides with substitutions on the non-polar face follows the same trend: A12D (70.83%) > F9D/A12D (38.26%) > F9D/A12D/V16D (36.41%). Since the values of the relative helicity of the peptides with D-amino acid substitutions on the non-polar face were less than those peptide analogs with the same number of D-amino acid substitutions on the polar face, it is clear that the amino acid residues on the non-polar face may be more important for stabilizing the α-helical structure than residues on the polar face.
The secondary structures of the peptides were examined using a Jasco J-810 CD spectrometer (Jasco, Easton, MD, USA) at 25 °C as described previously. […] The mean residue molar ellipticities were calculated according to the equation [θ] = θ/10lCMn, in which, θ represents the ellipticity in millidegrees, l is the optical path length of the cuvette in centimeters, CM is the peptide concentration in mol/L, and n is the number of residues in the peptide. The mean residue molar ellipticities at 222 nm, [θ]222 (degree·cm^2·dmol^−1), were used to calculate the relative helical content of the peptides.
In general terms: CD spectra are sensitive to the conformation of chiral molecules.

The nature of series [9]: RP-HPLC retention time as relative hydrophobicity. The class given is physicochemical. Conditions: 25 °C, used by the paper as measure of relative hydrophobicity. As to the method: The RP-HPLC retention time has been widely used to represent the relative hydrophobicity of peptides in many studies.The relative hydrophobicity of the peptides was determined by the RP-HPLC retention times at 25 °C. The change in hydrophobicity of the peptides caused by D-amino acid substitutions was mainly due to the disruption of the helical structure.

Series [10] deals with human red blood (hRBC) cells. The experiment in a line: Hemolytic activity assay. The class given is cell-based. Conditions: for MHC (minimal hemolytic concentration): 2% human RBC in PBS, 37 °C, 2 h, absorbance 578 nm, triplicate. On the procedure:
The […] of the peptides was measured by a hemolytic activity assay as described previously. Briefly, healthy human RBCs were collected using an anticoagulation tube with EDTAK2 and centrifuged at 1000 rpm for 5 min. The erythrocytes were washed three times, then diluted to a concentration of 2% in phosphate-buffered saline (PBS). The peptides were serially diluted in PBS and 70 μL of the peptide solutions and 2% RBC suspension were added simultaneously to each well of a 96-well plate (round bottom) for a further incubation at 37 °C for 2 h. Then, the plates were centrifuged for 10 min at 3000 rpm and the supernatant (90 μL) was transferred to a 96-well plate (flat bottom). The absorbance of the supernatant was measured on a microplate reader at 578 nm. Erythrocytes in PBS and distilled water were used as the negative (0%) and positive (100%) controls, respectively. The hemolytic activity was calculated as the percentage of experimental group over positive control (100%), after subtraction of negative control (0%). The hemolytic assays were repeated in triplicate.

For series [11], the system named is P. aeruginosa ATCC27853. The experiment in a line: Antimicrobial activity, microtiter dilution MIC. The class given is cell-based, Pseudomonas aeruginosa. The note with it: G−; MH medium, 5 × 10^5 CFU/mL, 37 °C, 24 h, triplicate. On the procedure: as §2

In brackets after ≈: the same amount, converted by molar mass.

One may read the IC50 as the concentration that gives 50% inhibition. A higher IC50 goes with weaker potency. For orientation: MIC means the least concentration at which growth counts as inhibited. Take `CC[C@H](C)[C@H](NC(=O)[C@H](C)NC(=O)[C@H](CCCCN)NC(=O)[C@H](CC(C)C)NC(=O)[C@H](C)NC(=O)[C@@H](NC(=O)[C@H](Cc1c[nH]cn1)NC(=O)[C@H](CC(C)C)NC(=O)[C@@H](NC(=O)[C@@H](NC(=O)[C@@H](CCCCN)NC(=O)[C@H](CCCCN)NC(=O)[C@H](C)NC(=O)[C@@H](CO)NC(=O)[C@H](CCCCN)NC(=O)[C@H](Cc1ccccc1)NC(=O)[C@@H](NC(=O)[C@H](CCCCN)NC(=O)[C@H](CC(C)C)NC(=O)[C@H](Cc1ccccc1)NC(=O)[C@H](CO)NC(=O)[C@H](CCCCN)NC(=O)[C@H](Cc1c[nH]c2ccccc12)NC(=O)[C@H](CCCCN)NC(C)=O)[C@@H](C)O)[C@@H](C)O)C(C)C)[C@@H](C)O)C(=O)N[C@@H](CO)C(=O)N[C@@H](CO)C(N)=O` [S11D/K14D]: the half-maximal inhibitory concentration (IC50) in series [1] worked out at 30.6 ± 0.5 µM; in series [2], 25.5 ± 0.5 µM; in series [3] it was 41.3 ± 2.6 µM; in series [4], 22.4 ± 2.3 µM. For the same molecule, the MIC in [5] came out at 16 µM (≈ 47.9 µg/mL); in series [6], 64 µM (≈ 191 µg/mL); in series [7], 64 µM (≈ 191 µg/mL); in series [11] it was 32 µM (≈ 95.7 µg/mL). Further, in series [8], the “[θ]222, benign” value is on record as −3524.85 degree·cm^2·dmol^−1. Moreover, in series [8], the “[θ]222, 50% TFE” value is recorded as −25,931.3 degree·cm^2·dmol^−1. The “α-Helix (%), 50% TFE (relative helicity)” value in series [8] is recorded as 51.33%. Further, in series [8], the “α-Helix (%), benign” value came out at 7.0%. Besides, in series [9], the “tR (RP-HPLC retention time), relative hydrophobicity” value (“tR … relative hydrophobicity” below) amounted to 40.77 min. Besides, the “MHC (minimal hemolytic concentration)” value in series [10] amounted to 125 µM.
For the molecule `CC[C@H](C)[C@H](NC(=O)[C@H](C)NC(=O)[C@H](CCCCN)NC(=O)[C@H](CC(C)C)NC(=O)[C@H](C)NC(=O)[C@@H](NC(=O)[C@H](Cc1c[nH]cn1)NC(=O)[C@H](CC(C)C)NC(=O)[C@H](NC(=O)[C@@H](NC(=O)[C@H](CCCCN)NC(=O)[C@H](CCCCN)NC(=O)[C@@H](C)NC(=O)[C@H](CO)NC(=O)[C@H](CCCCN)NC(=O)[C@H](Cc1ccccc1)NC(=O)[C@@H](NC(=O)[C@H](CCCCN)NC(=O)[C@H](CC(C)C)NC(=O)[C@H](Cc1ccccc1)NC(=O)[C@H](CO)NC(=O)[C@H](CCCCN)NC(=O)[C@H](Cc1c[nH]c2ccccc12)NC(=O)[C@H](CCCCN)NC(C)=O)[C@@H](C)O)[C@@H](C)O)C(C)C)[C@@H](C)O)C(=O)N[C@@H](CO)C(=O)N[C@@H](CO)C(N)=O` [A12D/V16D], the concentration for half-maximal inhibition (IC50) was 60.1 ± 1.2 µM in series [1], 41.4 ± 1.4 µM in series [2], 46.2 ± 3 µM in [3] and 125 ± 5.9 µM in series [4]. Moreover, the MIC is 125 µM (≈ 374 µg/mL) in series [5], 125 µM (≈ 374 µg/mL) in [6], 125 µM (≈ 374 µg/mL) in series [7] and 32 µM (≈ 95.7 µg/mL) in [11]. Also, the “[θ]222, benign” value in series [8] is reported as −3435.72 degree·cm^2·dmol^−1. Besides, the “[θ]222, 50% TFE” value in series [8] is −23,452.9 degree·cm^2·dmol^−1. Besides, the “α-Helix (%), 50% TFE (relative helicity)” value in [8] was determined as 46.42%. Also, the “α-Helix (%), benign” value in [8] turned out to be 6.8%. Also, the “tR … relative hydrophobicity” value in series [9] was 39.79 min. In addition, the “MHC (minimal hemolytic concentration)” value in [10] was more than 500 µM. Besides, the “Hemolytic activity compared with V13K” value in [10] (human red blood cells) is “much less hemolytic activity than V13K”.
Turning to `CC[C@H](C)[C@H](NC(=O)[C@H](C)NC(=O)[C@H](CCCCN)NC(=O)[C@H](CC(C)C)NC(=O)[C@H](C)NC(=O)[C@@H](NC(=O)[C@H](Cc1c[nH]cn1)NC(=O)[C@H](CC(C)C)NC(=O)[C@@H](NC(=O)[C@@H](NC(=O)[C@H](CCCCN)NC(=O)[C@H](CCCCN)NC(=O)[C@@H](C)NC(=O)[C@H](CO)NC(=O)[C@H](CCCCN)NC(=O)[C@H](Cc1ccccc1)NC(=O)[C@@H](NC(=O)[C@H](CCCCN)NC(=O)[C@H](CC(C)C)NC(=O)[C@H](Cc1ccccc1)NC(=O)[C@H](CO)NC(=O)[C@H](CCCCN)NC(=O)[C@H](Cc1c[nH]c2ccccc12)NC(=O)[C@H](CCCCN)NC(C)=O)[C@@H](C)O)[C@@H](C)O)C(C)C)[C@@H](C)O)C(=O)N[C@@H](CO)C(=O)N[C@@H](CO)C(N)=O` [Peptide A12D], the IC50 is 28.8 ± 0.8 µM in series [1], 15.5 ± 1.7 µM in series [2], 29.9 ± 4.8 µM in series [3] and 45.1 ± 1 µM in series [4]. Further, the minimal inhibitory concentration (MIC) in series [5] was determined as 16 µM (≈ 47.9 µg/mL); in series [6], 64 µM (≈ 191 µg/mL); in series [7], 32 µM (≈ 95.7 µg/mL); in series [11], 16 µM (≈ 47.9 µg/mL). Further, the “[θ]222, benign” value in series [8] is on record as −4130.9 degree·cm^2·dmol^−1. Also, the “[θ]222, 50% TFE” value in [8] is on record as −35,785.1 degree·cm^2·dmol^−1. For the same molecule, the “α-Helix (%), 50% TFE (relative helicity)” value in series [8] is 70.83%. Further, in series [8], the “α-Helix (%), benign” value stood at 8.2%. In addition, the “tR … relative hydrophobicity” value in series [9] came to 41.46 min. The “MHC (minimal hemolytic concentration)” value in [10] amounted to 125 µM.
